Measurements taken from ChEMBL document CHEMBL5149992, “Discovery, Optimization, and Evaluation of Quinazolinone Derivatives with Novel Linkers as Orally Efficacious Phosphoinositide-3-Kinase Delta Inhibitors for Treatment of Inflammatory Diseases” (J Med Chem, 2021).
Calls of active or inactive are those of the source. The rule behind the calls is not given here.

Columns and labels:
[1] = molecular target: T1, Phosphatidylinositol 4,5-bisphosphate 3-kinase catalytic subunit delta isoform (Homo sapiens) (UniProt O00329); assay: Inhibition of PI3Kdelta (unknown origin) at 0.1 uM using phosphatidylinositol as substrate incubated for 30 mins in presence of ATP by HTRF based assay relative to control
T1 sequence (whole entry): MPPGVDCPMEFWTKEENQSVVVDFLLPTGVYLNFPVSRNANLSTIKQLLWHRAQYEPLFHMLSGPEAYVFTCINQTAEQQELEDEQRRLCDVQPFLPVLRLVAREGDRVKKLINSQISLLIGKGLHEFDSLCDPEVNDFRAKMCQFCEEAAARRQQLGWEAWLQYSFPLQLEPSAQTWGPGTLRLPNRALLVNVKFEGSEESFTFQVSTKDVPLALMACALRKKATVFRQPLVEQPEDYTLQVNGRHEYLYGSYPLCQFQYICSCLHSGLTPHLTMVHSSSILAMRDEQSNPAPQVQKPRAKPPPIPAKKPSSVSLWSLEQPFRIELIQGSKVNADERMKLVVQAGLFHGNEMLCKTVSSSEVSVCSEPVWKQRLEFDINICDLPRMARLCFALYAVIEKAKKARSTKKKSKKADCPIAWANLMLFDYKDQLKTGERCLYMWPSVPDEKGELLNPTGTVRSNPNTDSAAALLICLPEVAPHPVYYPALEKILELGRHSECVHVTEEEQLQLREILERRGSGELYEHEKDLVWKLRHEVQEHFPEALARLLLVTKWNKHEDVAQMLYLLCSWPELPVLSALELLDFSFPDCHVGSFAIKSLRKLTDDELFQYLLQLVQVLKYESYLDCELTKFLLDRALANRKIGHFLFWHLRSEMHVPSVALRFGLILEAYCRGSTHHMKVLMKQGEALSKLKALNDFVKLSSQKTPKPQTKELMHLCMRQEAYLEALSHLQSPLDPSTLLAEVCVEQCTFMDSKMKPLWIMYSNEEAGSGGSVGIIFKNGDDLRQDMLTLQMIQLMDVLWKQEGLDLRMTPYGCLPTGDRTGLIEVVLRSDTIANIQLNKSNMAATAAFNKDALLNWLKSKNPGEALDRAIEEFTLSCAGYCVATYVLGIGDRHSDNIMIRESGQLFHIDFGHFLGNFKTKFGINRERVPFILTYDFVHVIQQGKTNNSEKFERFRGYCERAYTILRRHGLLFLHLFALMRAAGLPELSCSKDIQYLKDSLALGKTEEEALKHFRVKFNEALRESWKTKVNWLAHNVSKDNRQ

[2] = molecular target: T1, Phosphatidylinositol 4,5-bisphosphate 3-kinase catalytic subunit delta isoform (Homo sapiens); assay: Inhibition of PI3Kdelta (unknown origin) at 0.01 uM using phosphatidylinositol as substrate incubated for 30 mins in presence of ATP by HTRF based assay relative to control
[3] = molecular target: T2, Phosphatidylinositol 4,5-bisphosphate 3-kinase catalytic subunit delta isoform (Homo sapiens, UniProt O00329); assay: Inhibition of PI3Kdelta (unknown origin)
T2 sequence (O00329 whole entry): T1 sequence (whole entry)

[4] = molecular target: T3, Phosphatidylinositol 4,5-bisphosphate 3-kinase catalytic subunit gamma isoform (Homo sapiens, UniProt P48736); assay: Inhibition of PI3Kgamma (unknown origin)
Target sequence in this assay (P48736 whole entry, canonical isoform): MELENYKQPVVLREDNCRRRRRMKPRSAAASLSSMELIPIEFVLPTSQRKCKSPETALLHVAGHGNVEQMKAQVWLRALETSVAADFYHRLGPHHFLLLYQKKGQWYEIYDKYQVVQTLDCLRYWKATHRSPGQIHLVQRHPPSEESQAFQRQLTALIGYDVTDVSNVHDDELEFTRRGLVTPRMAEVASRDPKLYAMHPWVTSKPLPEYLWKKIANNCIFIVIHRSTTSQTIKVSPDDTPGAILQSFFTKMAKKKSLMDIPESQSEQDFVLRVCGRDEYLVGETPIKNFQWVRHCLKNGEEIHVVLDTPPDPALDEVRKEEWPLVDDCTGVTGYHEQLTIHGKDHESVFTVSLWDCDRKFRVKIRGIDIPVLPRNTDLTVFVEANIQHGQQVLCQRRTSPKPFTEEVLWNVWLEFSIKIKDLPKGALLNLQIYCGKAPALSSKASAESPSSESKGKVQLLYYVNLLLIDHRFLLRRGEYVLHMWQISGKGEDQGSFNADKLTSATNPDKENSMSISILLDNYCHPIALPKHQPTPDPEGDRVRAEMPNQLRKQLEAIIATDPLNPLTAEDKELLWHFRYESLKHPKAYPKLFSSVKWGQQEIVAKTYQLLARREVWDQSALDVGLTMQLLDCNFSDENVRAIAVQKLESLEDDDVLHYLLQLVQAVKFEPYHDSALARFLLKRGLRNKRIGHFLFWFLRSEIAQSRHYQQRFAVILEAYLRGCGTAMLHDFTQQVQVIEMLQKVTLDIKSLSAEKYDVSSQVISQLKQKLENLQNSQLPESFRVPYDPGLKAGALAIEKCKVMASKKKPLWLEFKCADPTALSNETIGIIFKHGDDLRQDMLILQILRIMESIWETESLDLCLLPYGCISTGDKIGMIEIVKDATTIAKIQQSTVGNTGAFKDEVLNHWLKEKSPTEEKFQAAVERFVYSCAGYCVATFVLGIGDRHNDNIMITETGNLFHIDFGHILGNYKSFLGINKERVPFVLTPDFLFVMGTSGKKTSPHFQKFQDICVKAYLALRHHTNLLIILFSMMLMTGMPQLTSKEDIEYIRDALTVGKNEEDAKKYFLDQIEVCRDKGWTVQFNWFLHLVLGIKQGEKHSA

[5] = molecular target: T4, Phosphatidylinositol 4,5-bisphosphate 3-kinase catalytic subunit alpha isoform (Homo sapiens, UniProt P42336); assay: Inhibition of PI3Kalpha (unknown origin)
T4 sequence (P42336 whole entry, canonical isoform): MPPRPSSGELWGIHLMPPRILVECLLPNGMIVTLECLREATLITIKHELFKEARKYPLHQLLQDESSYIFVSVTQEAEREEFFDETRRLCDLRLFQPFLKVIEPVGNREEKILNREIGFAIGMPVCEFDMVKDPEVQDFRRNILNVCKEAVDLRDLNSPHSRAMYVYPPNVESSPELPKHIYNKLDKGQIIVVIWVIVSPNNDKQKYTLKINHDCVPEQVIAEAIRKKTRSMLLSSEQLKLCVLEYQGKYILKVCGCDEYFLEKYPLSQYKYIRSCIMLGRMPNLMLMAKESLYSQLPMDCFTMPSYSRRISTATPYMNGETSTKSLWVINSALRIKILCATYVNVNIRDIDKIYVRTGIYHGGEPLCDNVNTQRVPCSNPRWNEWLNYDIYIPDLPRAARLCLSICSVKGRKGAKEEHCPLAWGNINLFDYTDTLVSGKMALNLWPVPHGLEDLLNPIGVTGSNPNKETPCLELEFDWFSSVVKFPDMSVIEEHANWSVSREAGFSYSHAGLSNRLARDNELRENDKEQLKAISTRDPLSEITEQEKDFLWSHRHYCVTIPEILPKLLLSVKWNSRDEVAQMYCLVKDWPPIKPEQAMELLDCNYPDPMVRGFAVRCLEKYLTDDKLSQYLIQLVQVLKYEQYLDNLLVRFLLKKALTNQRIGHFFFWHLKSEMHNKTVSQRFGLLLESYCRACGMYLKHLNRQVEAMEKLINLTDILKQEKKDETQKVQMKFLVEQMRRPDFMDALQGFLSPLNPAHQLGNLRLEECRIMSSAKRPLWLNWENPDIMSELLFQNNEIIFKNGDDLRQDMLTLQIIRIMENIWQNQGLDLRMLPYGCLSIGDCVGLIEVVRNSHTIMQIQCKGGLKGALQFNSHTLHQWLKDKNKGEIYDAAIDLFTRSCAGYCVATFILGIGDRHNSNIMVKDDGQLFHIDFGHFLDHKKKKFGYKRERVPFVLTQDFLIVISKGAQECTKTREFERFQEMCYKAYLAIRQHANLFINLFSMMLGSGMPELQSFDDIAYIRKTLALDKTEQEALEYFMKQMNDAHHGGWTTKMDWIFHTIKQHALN

[6] = molecular target: T5, Phosphatidylinositol 4,5-bisphosphate 3-kinase catalytic subunit beta isoform (Homo sapiens, UniProt P42338); assay: Inhibition of PI3Kbeta (unknown origin)
Target sequence in this assay (P42338 whole entry, canonical isoform): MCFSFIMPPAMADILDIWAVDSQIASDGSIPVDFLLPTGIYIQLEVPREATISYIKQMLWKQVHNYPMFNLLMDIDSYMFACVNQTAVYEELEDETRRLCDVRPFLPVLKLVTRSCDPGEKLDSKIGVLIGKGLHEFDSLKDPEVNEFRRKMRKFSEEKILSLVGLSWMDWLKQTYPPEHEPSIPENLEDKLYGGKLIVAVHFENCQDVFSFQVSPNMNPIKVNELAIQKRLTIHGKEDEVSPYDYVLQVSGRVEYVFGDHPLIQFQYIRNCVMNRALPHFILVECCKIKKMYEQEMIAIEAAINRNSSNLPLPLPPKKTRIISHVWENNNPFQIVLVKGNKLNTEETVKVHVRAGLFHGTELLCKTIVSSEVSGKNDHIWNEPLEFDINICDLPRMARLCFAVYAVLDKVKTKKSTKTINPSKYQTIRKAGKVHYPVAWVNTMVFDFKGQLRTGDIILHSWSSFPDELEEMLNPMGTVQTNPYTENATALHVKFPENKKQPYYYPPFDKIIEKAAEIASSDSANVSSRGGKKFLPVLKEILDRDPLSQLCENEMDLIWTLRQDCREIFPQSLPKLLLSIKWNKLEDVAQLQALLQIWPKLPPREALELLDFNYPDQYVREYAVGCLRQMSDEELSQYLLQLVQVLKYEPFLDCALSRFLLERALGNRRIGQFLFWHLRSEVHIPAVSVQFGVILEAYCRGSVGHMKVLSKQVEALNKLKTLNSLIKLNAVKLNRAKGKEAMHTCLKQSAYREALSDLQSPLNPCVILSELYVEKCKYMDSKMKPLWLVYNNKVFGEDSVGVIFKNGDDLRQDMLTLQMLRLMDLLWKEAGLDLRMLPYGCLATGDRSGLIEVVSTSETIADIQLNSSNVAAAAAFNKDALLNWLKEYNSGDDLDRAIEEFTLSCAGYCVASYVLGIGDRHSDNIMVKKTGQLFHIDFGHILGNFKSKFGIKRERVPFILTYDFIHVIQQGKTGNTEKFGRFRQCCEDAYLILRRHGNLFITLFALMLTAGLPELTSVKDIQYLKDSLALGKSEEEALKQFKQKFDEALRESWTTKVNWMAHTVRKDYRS

[7] = Toxicity in mouse at 100 mg/kg, po; assay type: organism-based; conditions: in vivo
[8] = human, microsomes, 10 µM
in vitro = conditions: human, liver microsomes
[9] = molecular target: T4, Phosphatidylinositol 4,5-bisphosphate 3-kinase catalytic subunit alpha isoform; assay: Inhibition of PI3Kalpha in human SK-OV-3 cells assessed as reduction in AKT phosphorylation at S473 residue incubated for 30 mins; assay type: cell-based
[10] = molecular target: T5, Phosphatidylinositol 4,5-bisphosphate 3-kinase catalytic subunit beta isoform; assay: Inhibition of PI3Kbeta in human 786-0 cells assessed as reduction in AKT phosphorylation at S473 residue incubated for 30 mins; assay type: cell-based
Target sequence in this assay (P42338 whole entry, canonical isoform): as above

[11] = molecular target: Phosphatidylinositol 4,5-bisphosphate 3-kinase catalytic subunit gamma isoform (Mus musculus, UniProt Q9JHG7); assay: Inhibition of PI3Kgamma in c5a-stimulated mouse RAW264.7 cells assessed as reduction in AKT phosphorylation at S473 residue incubated for 30 mins; assay type: cell-based
Chain of Phosphatidylinositol 4,5-bisphosphate 3-kinase catalytic subunit gamma isoform (Mus musculus, UniProt Q9JHG7) (Q9JHG7 whole entry, canonical isoform): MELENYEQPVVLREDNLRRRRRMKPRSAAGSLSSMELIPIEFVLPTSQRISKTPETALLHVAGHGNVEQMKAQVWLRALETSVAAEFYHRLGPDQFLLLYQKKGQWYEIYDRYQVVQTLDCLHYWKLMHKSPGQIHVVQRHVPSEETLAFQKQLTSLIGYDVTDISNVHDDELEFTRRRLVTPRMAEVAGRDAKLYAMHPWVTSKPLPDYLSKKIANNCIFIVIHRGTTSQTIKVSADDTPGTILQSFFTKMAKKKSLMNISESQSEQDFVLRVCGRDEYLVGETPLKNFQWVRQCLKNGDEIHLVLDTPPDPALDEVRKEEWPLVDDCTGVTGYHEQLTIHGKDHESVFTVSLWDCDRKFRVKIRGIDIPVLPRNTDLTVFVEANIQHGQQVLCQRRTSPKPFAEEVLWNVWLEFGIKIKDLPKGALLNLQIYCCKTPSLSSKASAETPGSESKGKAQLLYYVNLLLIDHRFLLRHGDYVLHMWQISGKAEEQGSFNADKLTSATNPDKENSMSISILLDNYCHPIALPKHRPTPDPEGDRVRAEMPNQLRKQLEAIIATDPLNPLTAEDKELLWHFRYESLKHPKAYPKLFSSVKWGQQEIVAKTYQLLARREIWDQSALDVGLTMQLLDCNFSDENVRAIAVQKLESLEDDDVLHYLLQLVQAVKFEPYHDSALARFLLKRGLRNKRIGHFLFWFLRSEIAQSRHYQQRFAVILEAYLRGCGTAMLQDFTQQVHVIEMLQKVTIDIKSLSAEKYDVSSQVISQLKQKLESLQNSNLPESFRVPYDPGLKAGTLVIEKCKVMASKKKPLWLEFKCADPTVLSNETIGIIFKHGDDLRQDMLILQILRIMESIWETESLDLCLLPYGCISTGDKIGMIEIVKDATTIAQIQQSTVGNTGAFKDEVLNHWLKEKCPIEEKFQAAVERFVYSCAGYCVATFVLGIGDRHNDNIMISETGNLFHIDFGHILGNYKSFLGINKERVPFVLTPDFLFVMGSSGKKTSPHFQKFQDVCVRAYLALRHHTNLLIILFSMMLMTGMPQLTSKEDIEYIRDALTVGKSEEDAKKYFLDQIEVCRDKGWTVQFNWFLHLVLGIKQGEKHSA

[12] = molecular target: T2, Phosphatidylinositol 4,5-bisphosphate 3-kinase catalytic subunit delta isoform; assay: Inhibition of PI3Kdelta in anti-IgM-stimulated human Raji cells assessed as reduction in AKT phosphorylation at S473 residue incubated for 30 mins; assay type: cell-based
[13] = molecular target: T2, Phosphatidylinositol 4,5-bisphosphate 3-kinase catalytic subunit delta isoform; assay: Inhibition of PI3Kdelta in anti-IgM-stimulated human whole blood B cell degranulation incubated for 60 mins by flow cytometry; assay type: tissue-based
H9c2 = assay: Cytotoxicity against rat H9c2 cells assessed as reduction in cell viability incubated for 72 hrs by CCK-8 assay; assay type: toxicity, cell-based; conditions: h9c2, 72 h
L929 = assay: Cytotoxicity against mouse L929 cells assessed as reduction in cell viability incubated for 72 hrs by CCK-8 assay; assay type: toxicity, cell-based; conditions: l929, 72 h
HEK293 = assay: Cytotoxicity against HEK293 cells assessed as reduction in cell viability incubated for 72 hrs by CCK-8 assay; assay type: toxicity, cell-based; conditions: human, hek293, 72 h
L02 = assay: Cytotoxicity against human L02 cells assessed as reduction in cell viability incubated for 72 hrs by CCK-8 assay; assay type: toxicity, cell-based; conditions: l02, 72 h
[14] = Elimination half life in Sprague-Dawley rat at 5 mg/kg, po incubated for 5 to 24 hrs by LC-MS/MS analysis; assay type: ADME, organism-based; conditions: in vivo, time 5-24 hrs, read-out: beta t1/2 (converted)
[15] = Elimination half life in Sprague-Dawley rat at 5 mg/kg, iv incubated for 5 to 24 hrs by LC-MS/MS analysis; assay type: ADME, organism-based; conditions: in vivo, time 5-24 hrs, read-out: beta t1/2 (converted)
[16] = Volume of distribution at steady state in Sprague-Dawley rat at 5 mg/kg, po incubated for 5 to 24 hrs by LC-MS/MS analysis; assay type: ADME, organism-based; conditions: in vivo, time 5-24 hrs
[17] = Volume of distribution at steady state in Sprague-Dawley rat at 5 mg/kg, iv incubated for 5 to 24 hrs by LC-MS/MS analysis; assay type: ADME, organism-based; conditions: in vivo, time 5-24 hrs, read-out: Vdss
[18] = Tmax in Sprague-Dawley rat at 5 mg/kg, po incubated for 5 to 24 hrs by LC-MS/MS analysis; assay type: ADME, organism-based; conditions: in vivo, time 5-24 hrs
[19] = Tmax in Sprague-Dawley rat at 5 mg/kg, iv incubated for 5 to 24 hrs by LC-MS/MS analysis; assay type: ADME, organism-based; conditions: in vivo, time 5-24 hrs
[20] = MRT in Sprague-Dawley rat at 5 mg/kg, po incubated for 5 to 24 hrs by LC-MS/MS analysis; assay type: ADME, organism-based; conditions: in vivo, time 5-24 hrs
[21] = MRT in Sprague-Dawley rat at 5 mg/kg, iv incubated for 5 to 24 hrs by LC-MS/MS analysis; assay type: ADME, organism-based; conditions: in vivo, time 5-24 hrs
[22] = AUC in Sprague-Dawley rat at 5 mg/kg, po incubated for 5 to 24 hrs by LC-MS/MS analysis; assay type: ADME, organism-based; design: dose 5 mg/kg, time upper 24 hrs, time lower 5 hrs, route po; conditions: in vivo
[23] = AUC in Sprague-Dawley rat at 5 mg/kg, iv incubated for 5 to 24 hrs by LC-MS/MS analysis; assay type: ADME, organism-based; design: time 5-24 hrs, dose 5 mg/kg, route iv; conditions: in vivo
[24] = Oral bioavailability Sprague-Dawley rat at 5 mg/kg incubated for 5 to 24 hrs by LC-MS/MS analysis; assay type: ADME, organism-based; conditions: in vivo, time 5-24 hrs
Mus musculus [25] = assay: Antiarthritic activity in collagen-induced rheumatoid arthritis po dosed DBA1/J mouse model assessed as reduction in disease severity measured once daily for 24 to 27 days; assay type: functional, organism-based; conditions: dose 5-20 mg/kg, time 24-27 day, DDE = dose-dependent effect
Mus musculus [26] = assay: Antiarthritic activity against collagen-induced arthritis DBA1/J mouse model assessed as paw swelling of forelimb at 5 to 20 mg/kg, po measured on day 27; assay type: functional, organism-based; conditions: dose 5-20 mg/kg, time 27.0 day
Mus musculus [27] = assay: Antiarthritic activity against collagen-induced arthritis DBA1/J mouse model assessed as paw swelling of hindlimb at 5 to 20 mg/kg, po measured on day 27; assay type: functional, organism-based; conditions: dose 5-20 mg/kg, time 27.0 day
Mus musculus [28] = assay: Antiarthritic activity against collagen-induced arthritis DBA1/J mouse model assessed as signs of inflammation at 20 mg/kg, po measured after 24 hrs by H and E staining based analysis; assay type: functional, organism-based
Mus musculus [29] = assay: Antiarthritic activity against collagen-induced arthritis DBA1/J mouse model assessed as bone erosion at 20 mg/kg, po measured after 24 hrs by H and E staining based analysis; assay type: functional, organism-based
Mus musculus [30] = assay: Antiarthritic activity against collagen-induced arthritis DBA1/J mouse model assessed as destruction of cartilage at 20 mg/kg, po measured after 24 hrs by Safranin-O staining based microscopic analysis; assay type: functional, organism-based
[31] = molecular target: T1, Phosphatidylinositol 4,5-bisphosphate 3-kinase catalytic subunit delta isoform (Homo sapiens); assay: Inhibition of PI3Kdelta (unknown origin) at 0.1 uM relative to control
Mus musculus [32] = assay: Antiarthritic activity in collagen-induced rheumatoid arthritis DBA1/J mouse model assessed as reduction in disease severity at 20 mg/kg, po qd measured once daily for 24 to 27 days; assay type: functional, organism-based; conditions: time 24-27 day
[33] = molecular target: T4, Phosphatidylinositol 4,5-bisphosphate 3-kinase catalytic subunit alpha isoform; assay: Inhibition of PI3Kalpha (unknown origin) at 0.1 uM relative to control
[34] = molecular target: T3, Phosphatidylinositol 4,5-bisphosphate 3-kinase catalytic subunit gamma isoform; assay: Inhibition of PI3Kgamma (unknown origin) at 0.1 uM relative to control
Target sequence in this assay (P48736 whole entry, looked up, canonical isoform): as the sequence (P48736 whole entry, canonical isoform) above

[35] = molecular target: T5, Phosphatidylinositol 4,5-bisphosphate 3-kinase catalytic subunit beta isoform; assay: Inhibition of PI3Kbeta (unknown origin) at 0.1 uM relative to control
Target sequence in this assay (P42338 whole entry, looked up, canonical isoform): as the sequence (P42338 whole entry, canonical isoform) above

N#Cc1c(N)ncnc1N1[C@H](c2nc3cccc(Cl)c3c(=O)n2-c2ccccc2)C[C@@H]2CCCC[C@@H]21
inhibition [1]: 43% | inhibition [2]: 10% | IC50 [3]: 0.09 µM | IC50 [4]: > 1 µM | IC50 [5]: > 1 µM | IC50 [6]: > 1 µM | Activity [7]: Non-Toxic | CLH [8]: 19.8 mL/min/g | half-life at 60 h, 10 µM (in vitro): 1.17 h

C[C@H]1CC[C@@H](c2nc3cccc(Cl)c3c(=O)n2-c2cccc(F)c2)N1c1ncnc2[nH]cnc12
IC50 [3]: 0.014 µM | IC50 [4]: 0.267 µM | IC50 [5]: 4.43 µM | IC50 [6]: 0.375 µM | IC50 [9]: 4.36 µM | IC50 [10]: 0.943 µM | IC50 [11]: 0.571 µM | IC50 [12]: 0.0247 µM | IC50 [13]: 0.1 µM | Activity (H9c2): Non-Toxic | Activity (L929): Non-Toxic | Activity (HEK293): Non-Toxic | Activity (L02): Non-Toxic | half-life [14]: 2.06 h | half-life [15]: 2 h | Vdss [16]: 9.1 L/kg | Vd [17]: 7.16 L/kg | Tmax [18]: 4.67 h | Tmax [19]: 4.8 min | MRT [20]: 5.96 h | MRT [21]: 2.53 h | AUC [22]: 4897.74 ng·h/mL | AUC [23]: 2110.52 ng·h/mL | F [24]: 89.9% | Activity (Mus musculus [25]): Dde | Activity (Mus musculus [26]): Active | Activity (Mus musculus [27]): Active | Activity (Mus musculus [28]): Active | Activity (Mus musculus [29]): Active | Activity (Mus musculus [30]): Active | CLH [8]: 5.2 mL/min/g | half-life at 60 h, 10 µM (in vitro): 4.44 h

N#Cc1c(N)ncnc1N1CC(F)(F)C[C@H]1c1nc2cccc(Cl)c2c(=O)n1-c1ccccc1
inhibition [1]: 60% | inhibition [2]: 15% | IC50 [3]: 0.033 µM | IC50 [4]: > 1 µM | IC50 [5]: > 1 µM | IC50 [6]: > 1 µM | Activity [7]: Toxic | CLH [8]: 8.2 mL/min/g | half-life at 60 h, 10 µM (in vitro): 2.82 h

N#Cc1c(N)ncnc1N1[C@H](c2nc3cccc(Cl)c3c(=O)n2-c2cccc(OC(F)(F)F)c2)C[C@@H]2CCCC[C@@H]21
inhibition [31]: 5%

CC[C@H](Nc1ncnc2[nH]cnc12)c1nc2cccc(F)c2c(=O)n1-c1ccccc1 [IDELALISIB]
IC50 [11]: 1.3 µM | Activity (Mus musculus [32]): Active

N#Cc1c(N)ncnc1N1[C@H](c2nc3cccc(Cl)c3c(=O)n2-c2cccc(F)c2)C[C@@H]2CCCC[C@@H]21
inhibition [33]: 4% | inhibition [34]: 5% | inhibition [35]: 17% | IC50 [3]: 0.034 µM | CLH [8]: 10 mL/min/g | half-life at 60 h, 10 µM (in vitro): 2.31 h
